# From patent publication US8410170B2, “Use of isothiocyanates compounds in treating prostatic diseases and skin cancer” (Wuxi JC Pharmaceutical Technology Co., Ltd., priority 2005, dated 2013)
# How the values were obtained:
# Sp1 = target: T1, Sp1 (Homo sapiens, UniProt P08047); assay: Mobility gel shift assay (EMSA) of Sp1-DNA binding; type: cell-based; conditions: AD cells exposed 24 hrs
# T1 construct: endogenous in cells; host or cells: LNCaP AD cells, nuclear extract
# Method: EMSA was performed according to modern technology. […] The extraction of nuclear proteins was performed as described previously (Wang, L. G., Liu, X. M., Kreis, W., and Budman, D. R. Down-regulation of prostate-specific antigen expression by finasteride through inhibition of complex formation between androgen receptor and steroid receptor-binding consensus in the promoter of the PSA gene in LNCaP cells. Cancer Res, 57: 714-719, 1997). Five μg of nuclear proteins was reacted for 30 minutes at room temperature with the [^32P]-labeled Sp1 oligonucleotide or their corresponding mutants oligonucleotide probe in binding buffer containing […] dIdC to increase the specificity of the reaction. The reaction mixtures were then subjected to electrophoresis in 8% native polyacrylamide gel(PAGE). The binding complexes were visualized by exposing the dried gel to X-ray film.
# LNCaP AD = assay: MTT growth inhibition, hormone dependent LNCaP AD; type: cell-based; conditions: Homo sapiens, LNCaP, 168 h, read-out: IC50, growth inhibition
# Excerpt: The human prostate cancer cell line LNCaP AD was purchased from the American Type Culture Collection. LNCaP AI cell line was derived from LNCaP cells using a method described previously by Gao et al. (Gao, M., Ossowski, L., and Ferrari, A. C. Activation of Rb and decline in androgen receptor protein precede retinoic acid-induced apoptosis in androgen-dependent LNCaP cells and their androgen-independent derivative. J Cell Physiol, 179: 336-346, 1999). The AD and AI cells were maintained in RPMI-1640 with 10% fetal bovine serum (FBS) and charcoal stripped fetal bovine serum, penicillin-streptomycin for incubation at 5% CO2 and 37° C. respectively.
# MTT: MTT and SRB method were used to determine the effects of various isothiocyanates on cell growth as described previously (Kreis, Budman et al, 1997). Briefly, human prostate cancer cell line LNCaP grown exponentially were aliquoted into 96-well plates at a density of 2500 cells/200 μl per well. Twenty-four hrs after the incubation, the cells were exposed for seven days to serial dilutions of indicated isothiocyanate or paclitaxel. […] The absorbance was measured at wavelength 540 nm. The percent of cell survival (T/C%) were calculated based on the results of test groups to that of the control group. […]
# T1 sequence (P08047 whole entry): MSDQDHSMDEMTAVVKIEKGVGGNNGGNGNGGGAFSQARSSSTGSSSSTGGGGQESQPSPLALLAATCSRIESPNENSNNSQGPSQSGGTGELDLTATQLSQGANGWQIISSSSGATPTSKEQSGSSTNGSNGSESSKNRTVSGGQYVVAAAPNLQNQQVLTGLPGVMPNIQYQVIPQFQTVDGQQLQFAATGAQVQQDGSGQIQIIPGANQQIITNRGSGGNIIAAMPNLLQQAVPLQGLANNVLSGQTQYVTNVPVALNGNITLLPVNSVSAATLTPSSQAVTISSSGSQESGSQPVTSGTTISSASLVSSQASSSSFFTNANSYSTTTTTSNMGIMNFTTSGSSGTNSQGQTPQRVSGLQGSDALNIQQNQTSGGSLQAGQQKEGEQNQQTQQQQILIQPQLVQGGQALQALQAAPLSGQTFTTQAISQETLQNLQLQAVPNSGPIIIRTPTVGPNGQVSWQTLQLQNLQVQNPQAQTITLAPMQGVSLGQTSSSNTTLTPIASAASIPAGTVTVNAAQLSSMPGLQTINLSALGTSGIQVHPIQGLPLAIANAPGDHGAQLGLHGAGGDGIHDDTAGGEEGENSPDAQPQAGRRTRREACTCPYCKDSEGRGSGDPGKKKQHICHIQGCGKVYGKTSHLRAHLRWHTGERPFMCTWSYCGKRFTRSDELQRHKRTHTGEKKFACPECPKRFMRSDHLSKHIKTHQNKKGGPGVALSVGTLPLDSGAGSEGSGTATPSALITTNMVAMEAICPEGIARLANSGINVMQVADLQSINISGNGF
compound,measurement,setting,value
"S=C=NCCc1ccccc1 [PEITC, phenethyl isothiocyanate]",binding activity to Sp1 specific oligonucleotide of nuclear proteins (EMSA),Sp1,significantly reduced
same,IC50,LNCaP AD,600 nM
